# Key:
# Assay in all cases: relative viability (nuclei count vs DMSO), 5 days (fraction); higher = more cells survive
# HCC-366 = tested on: HCC-366
# Procedure, shortened: (§1)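 Medians of duplicate plates are given as relative viability. That measure is the nuclei count in treated wells divided by the count in vehicle wells. Counts were taken on 4× images of lung cancer cell lines in 1536-well plates, 5 days after pin-tool dosing the day after seeding with one drug alone or a fixed anchor-drug dose plus five library-drug doses (not always all listed) in √10 steps.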
# LOU-NH91 = tested on: LOU-NH91
# Procedure, shortened: as §1
# NCI-H1437 = tested on: NCI-H1437
# Procedure, shortened: as §1
# NCI-H1993 = tested on: NCI-H1993
# Procedure, shortened: as §1
# EKVX = tested on: EKVX
# Procedure, shortened: as §1
# NCI-H2342 = tested on: NCI-H2342
# Procedure, shortened: as §1
# SK-LU-1 = tested on: SK-LU-1
# Procedure, shortened: as §1
# NCI-H2009 = tested on: NCI-H2009
# Procedure, shortened: as §1
# NCI-H1355 = tested on: NCI-H1355
# Procedure, shortened: as §1
# NCI-H2170 = tested on: NCI-H2170
# Procedure, shortened: as §1
# NCI-H661 = tested on: NCI-H661
# Procedure, shortened: as §1
# NCI-H1395 = tested on: NCI-H1395
# Procedure, shortened: as §1
# NCI-H2087 = tested on: NCI-H2087
# Procedure, shortened: as §1
# HCC-827 = tested on: HCC-827
# Procedure, shortened: as §1
# NCI-H2405 = tested on: NCI-H2405
# Procedure, shortened: as §1
# NCI-H1734 = tested on: NCI-H1734
# Procedure, shortened: as §1
# NCI-H647 = tested on: NCI-H647
# Procedure, shortened: as §1
# HARA = tested on: HARA
# Procedure, shortened: as §1
# SK-MES-1 = tested on: SK-MES-1
# Procedure, shortened: as §1
# BEN = tested on: BEN
# Procedure, shortened: as §1
smiles,measurement,setting,value
Nc1ccn([C@@H]2O[C@H](CO)[C@@H](O)[C@@H]2O)c(=O)n1 [Cytarabine] + COc1cc2c(Oc3ccc(NC(=O)C4(C(=O)Nc5ccc(F)cc5)CC4)cc3F)ccnc2cc1OCCCN1CCOCC1 [Foretinib] (partner 0.25 µM),relative viability,HCC-366; first compound 0.005 µM,0.991
same,relative viability,HCC-366; first compound 0.01581 µM,0.831
same,relative viability,HCC-366; first compound 0.05 µM,0.584
same,relative viability,HCC-366; first compound 0.1581 µM,0.119
same,relative viability,HCC-366; first compound 0.5 µM,0.105
same,relative viability,LOU-NH91; first compound 0.005 µM,0.993
same,relative viability,LOU-NH91; first compound 0.01581 µM,0.926
same,relative viability,LOU-NH91; first compound 0.05 µM,0.869
same,relative viability,LOU-NH91; first compound 0.1581 µM,0.585
same,relative viability,LOU-NH91; first compound 0.5 µM,0.712
same,relative viability,NCI-H1437; first compound 0.005 µM,0.973
same,relative viability,NCI-H1437; first compound 0.01581 µM,0.922
same,relative viability,NCI-H1437; first compound 0.05 µM,0.626
same,relative viability,NCI-H1437; first compound 0.1581 µM,0.287
same,relative viability,NCI-H1437; first compound 0.5 µM,0.251
same,relative viability,NCI-H1993; first compound 0.005 µM,0.843
same,relative viability,NCI-H1993; first compound 0.01581 µM,0.889
same,relative viability,NCI-H1993; first compound 0.05 µM,0.726
same,relative viability,NCI-H1993; first compound 0.1581 µM,0.485
same,relative viability,NCI-H1993; first compound 0.5 µM,0.468
same,relative viability,EKVX; first compound 0.005 µM,0.866
same,relative viability,EKVX; first compound 0.01581 µM,0.594
same,relative viability,EKVX; first compound 0.05 µM,0.622
same,relative viability,EKVX; first compound 0.1581 µM,0.413
same,relative viability,EKVX; first compound 0.5 µM,0.793
same,relative viability,NCI-H2342; first compound 0.005 µM,0.983
same,relative viability,NCI-H2342; first compound 0.01581 µM,0.887
same,relative viability,NCI-H2342; first compound 0.05 µM,0.798
same,relative viability,NCI-H2342; first compound 0.1581 µM,0.784
same,relative viability,NCI-H2342; first compound 0.5 µM,0.676
same,relative viability,SK-LU-1; first compound 0.005 µM,0.735
same,relative viability,SK-LU-1; first compound 0.01581 µM,0.759
same,relative viability,SK-LU-1; first compound 0.05 µM,0.538
same,relative viability,SK-LU-1; first compound 0.1581 µM,0.302
same,relative viability,SK-LU-1; first compound 0.5 µM,0.23
same,relative viability,NCI-H2009; first compound 0.005 µM,1.23
same,relative viability,NCI-H2009; first compound 0.01581 µM,1.22
same,relative viability,NCI-H2009; first compound 0.05 µM,1.19
same,relative viability,NCI-H2009; first compound 0.1581 µM,0.981
same,relative viability,NCI-H2009; first compound 0.5 µM,0.503
same,relative viability,NCI-H1355; first compound 0.005 µM,0.976
same,relative viability,NCI-H1355; first compound 0.01581 µM,0.912
same,relative viability,NCI-H1355; first compound 0.05 µM,0.911
same,relative viability,NCI-H1355; first compound 0.1581 µM,0.501
same,relative viability,NCI-H1355; first compound 0.5 µM,0.444
same,relative viability,NCI-H2170; first compound 0.005 µM,0.736
same,relative viability,NCI-H2170; first compound 0.01581 µM,0.458
same,relative viability,NCI-H2170; first compound 0.05 µM,0.672
same,relative viability,NCI-H2170; first compound 0.1581 µM,0.515
same,relative viability,NCI-H2170; first compound 0.5 µM,0.569
same,relative viability,NCI-H661; first compound 0.005 µM,0.93
same,relative viability,NCI-H661; first compound 0.01581 µM,0.942
same,relative viability,NCI-H661; first compound 0.05 µM,0.884
same,relative viability,NCI-H661; first compound 0.1581 µM,0.68
same,relative viability,NCI-H661; first compound 0.5 µM,0.519
same,relative viability,NCI-H1395; first compound 0.005 µM,0.917
same,relative viability,NCI-H1395; first compound 0.01581 µM,0.757
same,relative viability,NCI-H1395; first compound 0.05 µM,0.548
same,relative viability,NCI-H1395; first compound 0.1581 µM,0.492
same,relative viability,NCI-H1395; first compound 0.5 µM,0.413
same,relative viability,NCI-H2087; first compound 0.005 µM,1.11
same,relative viability,NCI-H2087; first compound 0.01581 µM,0.834
same,relative viability,NCI-H2087; first compound 0.05 µM,0.851
same,relative viability,NCI-H2087; first compound 0.1581 µM,0.491
same,relative viability,NCI-H2087; first compound 0.5 µM,0.253
same,relative viability,HCC-827; first compound 0.005 µM,0.721
same,relative viability,HCC-827; first compound 0.01581 µM,0.424
same,relative viability,HCC-827; first compound 0.05 µM,0.368
same,relative viability,HCC-827; first compound 0.1581 µM,0.169
same,relative viability,HCC-827; first compound 0.5 µM,0.177
same,relative viability,NCI-H2405; first compound 0.005 µM,1.02
same,relative viability,NCI-H2405; first compound 0.01581 µM,0.908
same,relative viability,NCI-H2405; first compound 0.05 µM,0.747
same,relative viability,NCI-H2405; first compound 0.1581 µM,0.618
same,relative viability,NCI-H2405; first compound 0.5 µM,0.493
same,relative viability,NCI-H1734; first compound 0.005 µM,0.553
same,relative viability,NCI-H1734; first compound 0.01581 µM,0.373
same,relative viability,NCI-H1734; first compound 0.05 µM,0.205
same,relative viability,NCI-H1734; first compound 0.1581 µM,0.164
same,relative viability,NCI-H1734; first compound 0.5 µM,0.124
same,relative viability,NCI-H647; first compound 0.005 µM,0.625
same,relative viability,NCI-H647; first compound 0.01581 µM,0.617
same,relative viability,NCI-H647; first compound 0.05 µM,0.282
same,relative viability,NCI-H647; first compound 0.1581 µM,0.109
same,relative viability,NCI-H647; first compound 0.5 µM,0.11
same,relative viability,HARA; first compound 0.005 µM,0.753
same,relative viability,HARA; first compound 0.01581 µM,0.496
same,relative viability,HARA; first compound 0.05 µM,0.363
same,relative viability,HARA; first compound 0.1581 µM,0.107
same,relative viability,HARA; first compound 0.5 µM,0.123
same,relative viability,SK-MES-1; first compound 0.005 µM,0.763
same,relative viability,SK-MES-1; first compound 0.01581 µM,0.704
same,relative viability,SK-MES-1; first compound 0.05 µM,0.457
same,relative viability,SK-MES-1; first compound 0.1581 µM,0.336
same,relative viability,SK-MES-1; first compound 0.5 µM,0.304
same,relative viability,BEN; first compound 0.005 µM,0.768
same,relative viability,BEN; first compound 0.01581 µM,0.515
same,relative viability,BEN; first compound 0.05 µM,0.301
same,relative viability,BEN; first compound 0.1581 µM,0.278
same,relative viability,BEN; first compound 0.5 µM,0.222

# Reference: the supplement of paper PMC10307832
